Assay results as given in patent US8404619B2, “Particulate plant treatment composition” (Maruo Calcium Company Limited, priority 2005, dated 2013).

Key:
Assay type in all cases: in vivo
[1] = system: mandarin orange tree (Satsuma mandarin); assay: preventing peel puffing and improving fruit quality, leaf spray on mandarin orange tree; details: for Fruit skin color: color chart 0 (poorly colored) to 12 (fully colored); for Degree of peel puffing: peel puffing index, 20 fruits, sprayed three times; for Phytotoxicity: scale of 1 to 5; for Sugar content: sugar refractometer; for Acidity: titratable citric acid content
Protocol: The effects of a quality improver in preventing peel puffing and improving fruit quality were evaluated using a mandarin orange tree (Satsuma mandarin). That is, the quality improver of Example 1 was sprayed on the mandarin orange tree at the polyvalent metal concentrations shown in Table 2 over three times from early September (one-month interval). Each treatment was conducted on each branch by spraying with a backpack sprayer.
The evaluation was carried out on 20 randomly selected fruits. The degree of peel puffing was evaluated by examining cross sections of the fruits based on a 4-point scale (none=0, mild=1, moderate=2, severe=3), and expressed by the following equation: peel puffing index={(1×the number of fruits with mild peel puffing)+(2×the number of fruits with moderate peel puffing)+(3×the number of fruits with severe peel puffing)}×100/(3×the number of fruits examined). The fruit skin color was determined using a color chart based on a scale of 0 (poorly colored) to 12 (fully colored). The sugar content was determined using a sugar refractometer. The acidity was expressed as titratable citric acid content. The dirt on a fruit surface was evaluated by a ratio of the surface area soiled whitish to the total surface area of the fruit on a scale of 1 to 5 (not soiled=1, slightly soiled=2, a little soiled=3, moderately soiled=4, much soiled=5). The phytotoxicity was evaluated on a scale of 1 to 5 (normal=1, slightly damaged=2, a little damaged=3, moderately damaged=4, much damaged=5).
The examinations were carried out in the same manner as in Application Example 1 except that the quality improvers of Examples 2 to 21 and Comparative Examples 1 to 4 were used instead of the quality improver of Example 1.

grape tree (Pione) = assay: reducing fruit-cracking and improving fruit quality, spray on grape tree
Protocol: The effects of a quality improver in reducing fruit-cracking and improving fruit quality were evaluated using a grape tree (Pione). That is, the quality improver of Example 1 was sprayed on the grape tree at the polyvalent metal concentrations shown in Table 8 over four times from early July (two-week interval). Each treatment was conducted on each branch by spraying with a backpack sprayer.
The evaluation was carried out on 20 randomly selected clusters. The number of fruit-cracking was expressed as the number of grains with cracking in a cluster examined. The degree of fruit coloring was expressed using a color chart based on a scale of 0 (poorly colored) to 12 (fully colored). The sugar content was determined using a sugar refractometer. The acidity was expressed as titratable tartaric acid content. The dirt on a fruit surface was evaluated by a ratio of the surface area soiled whitish to the total surface area of the fruit on a scale of 1 to 5 (not soiled=1, slightly soiled=2, a little soiled=3, moderately soiled=4, much soiled=5). The phytotoxicity was evaluated on a scale of 1 to 5 (normal=1, slightly damaged=2, a little damaged=3, moderately damaged=4, much damaged=5).
The examinations were carried out in the same manner as in Application Example 64 except that the quality improvers of Examples 2 to 4, 6 to 7, 12, 14, 17 to 18, and Comparative Examples 1 to 4 were used instead of the quality improver of Example 1.

apple tree (Tsugaru) = assay: preventing sunburn, spray on apple tree
Protocol: The effects of a quality improver in preventing sunburn were evaluated using an apple tree (Tsugaru).
That is, the quality improver of Example 1 was sprayed on the apple tree at the polyvalent metal concentrations shown in Table 12 over three times from early July (two-week interval). Each treatment was conducted on each branch by spraying with a backpack sprayer.
The evaluation was carried out on 50 randomly selected fruits. The incidence of sunburn was expressed as a ratio of the number of fruits with sunburn to the total number of fruits examined. The level of sunburn was expressed on a 4-point scale (none=0, mild=1, moderate=2, severe=3) based on a ratio of the sunburn area to the total surface area of the fruit. The fruit with a sunburn level of 2 or 3 was considered as a seriously damaged fruit. The dirt on a fruit surface was evaluated by a ratio of the surface area soiled whitish to the total surface area of the fruit on a scale of 1 to 5 (not soiled=1, slightly soiled=2, a little soiled=3, moderately soiled=4, much soiled=5). The phytotoxicity was evaluated on a scale of 1 to 5 (normal=1, slightly damaged=2, a little damaged=3, moderately damaged=4, much damaged=5).
The examinations were carried out in the same manner as in Application Example 84 except that the quality improvers of Examples 2 to 4, 6 to 7, 12, 14, 17 to 18, and Comparative Examples 1 to 4 were used instead of the quality improver of Example 1.

apple tree (Orin) = assay: reducing bitter pit and improving fruit quality, spray on apple tree; details: for Incidence of bitter pit: 50 fruits, sprayed four times; for Ground color: fruit skin, 5-point scale (best=5, worst=1); for Phytotoxicity: scale of 1 to 5; for Sugar content: sugar refractometer; for Acidity: titratable malic acid content
Protocol: The effects of a quality improver in reducing bitter pit and improving fruit quality were evaluated using an apple tree (Orin). That is, the quality improver of Example 1 was sprayed on the apple tree at the polyvalent metal concentrations shown in Table 4 over four times from early June (two-week interval). Each treatment was conducted on each branch by spraying with a backpack sprayer.
The evaluation was carried out on 50 randomly selected fruits. The incidence of bitter pit was expressed as a ratio of the number of fruits with bitter pit to the total number of fruits examined. The ground color of fruit skin was determined on a 5-point scale (best=5, worst=1). The sugar content was determined using a sugar refractometer. The acidity was expressed as titratable malic acid content. The phytotoxicity was evaluated on a scale of 1 to 5 (normal=1, slightly damaged=2, a little damaged=3, moderately damaged=4, much damaged=5).
The examinations were carried out in the same manner as in Application Example 22 except that the quality improvers of Examples 2 to 21 and Comparative Examples 1 to 4 were used instead of the quality improver of Example 1.

Row | Compound | Fruit skin color ([1]; polyvalent metal 0.030 wt. %) | Fruit skin color ([1]; polyvalent metal 0.075 wt. %) | Degree of peel puffing ([1]; polyvalent metal 0.030 wt. %) | Degree of peel puffing ([1]; polyvalent metal 0.075 wt. %) | Phytotoxicity ([1]; polyvalent metal 0.030 wt. %) | Phytotoxicity ([1]; polyvalent metal 0.075 wt. %) | Sugar content ([1]; polyvalent metal 0.030 wt. %) | Sugar content ([1]; polyvalent metal 0.075 wt. %) | Acidity ([1]; polyvalent metal 0.030 wt. %) | Acidity ([1]; polyvalent metal 0.075 wt. %) | Acidity (grape tree (Pione); polyvalent metal 0.030 wt. %) | Degree of fruit coloring (grape tree (Pione); polyvalent metal 0.030 wt. %) | Number of fruit-cracking (grape tree (Pione); polyvalent metal 0.030 wt. %) | Phytotoxicity (grape tree (Pione); polyvalent metal 0.030 wt. %) | Sugar content (grape tree (Pione); polyvalent metal 0.030 wt. %) | Acidity (grape tree (Pione); polyvalent metal 0.075 wt. %) | Degree of fruit coloring (grape tree (Pione); polyvalent metal 0.075 wt. %) | Number of fruit-cracking (grape tree (Pione); polyvalent metal 0.075 wt. %) | Phytotoxicity (grape tree (Pione); polyvalent metal 0.075 wt. %) | Sugar content (grape tree (Pione); polyvalent metal 0.075 wt. %) | other results
1 | [Ca+2].[Cl-].[Cl-] [calcium chloride] | 9.5 | 9.9 | 47.0 | 42.0 | 4 | 4 | 10.0 | 10.1 | 1.00 | 0.99 | 0.63 | 9.2 | 4.4 | 4 | 18.4 | 0.66 | 9.0 | 4.5 | 4 | 18.6 | Incidence of sunburn (apple tree (Tsugaru); polyvalent metal 0.030 wt. %): 10.0%; Phytotoxicity (apple tree (Tsugaru); polyvalent metal 0.030 wt. %): 4; Seriously damaged fruit (apple tree (Tsugaru); polyvalent metal 0.030 wt. %): 8.0%; Incidence of sunburn (apple tree (Tsugaru); polyvalent metal 0.075 wt. %): 12.0%; Phytotoxicity (apple tree (Tsugaru); polyvalent metal 0.075 wt. %): 4; Seriously damaged fruit (apple tree (Tsugaru); polyvalent metal 0.075 wt. %): 8.0%; Incidence of bitter pit (apple tree (Orin); polyvalent metal 0.030 wt. %): 30.0%; Incidence of bitter pit (apple tree (Orin); polyvalent metal 0.075 wt. %): 25.0%; Ground color (apple tree (Orin); polyvalent metal 0.030 wt. %): 3.7; Ground color (apple tree (Orin); polyvalent metal 0.075 wt. %): 3.9; Phytotoxicity (apple tree (Orin); polyvalent metal 0.030 wt. %): 4; Phytotoxicity (apple tree (Orin); polyvalent metal 0.075 wt. %): 4; Sugar content (apple tree (Orin); polyvalent metal 0.030 wt. %): 14.1; Sugar content (apple tree (Orin); polyvalent metal 0.075 wt. %): 14.2; Acidity (apple tree (Orin); polyvalent metal 0.030 wt. %): 0.37; Acidity (apple tree (Orin); polyvalent metal 0.075 wt. %): 0.35
2 | O=C[O-].O=C[O-].[Ca+2] [calcium formate] | 10.0 | 10.4 | 47.5 | 42.5 | 3 | 3 | 10.5 | 11.1 | 0.93 | 0.95 | 0.54 | 9.7 | 3.9 | 3 | 18.9 | 0.53 | 9.7 | 3.6 | 3 | 19.3 | Incidence of sunburn (apple tree (Tsugaru); polyvalent metal 0.030 wt. %): 10.0%; Phytotoxicity (apple tree (Tsugaru); polyvalent metal 0.030 wt. %): 3; Seriously damaged fruit (apple tree (Tsugaru); polyvalent metal 0.030 wt. %): 6.0%; Incidence of sunburn (apple tree (Tsugaru); polyvalent metal 0.075 wt. %): 10.0%; Phytotoxicity (apple tree (Tsugaru); polyvalent metal 0.075 wt. %): 3; Seriously damaged fruit (apple tree (Tsugaru); polyvalent metal 0.075 wt. %): 6.0%; Incidence of bitter pit (apple tree (Orin); polyvalent metal 0.030 wt. %): 26.0%; Incidence of bitter pit (apple tree (Orin); polyvalent metal 0.075 wt. %): 24.0%; Ground color (apple tree (Orin); polyvalent metal 0.030 wt. %): 3.8; Ground color (apple tree (Orin); polyvalent metal 0.075 wt. %): 3.8; Phytotoxicity (apple tree (Orin); polyvalent metal 0.030 wt. %): 3; Phytotoxicity (apple tree (Orin); polyvalent metal 0.075 wt. %): 3; Sugar content (apple tree (Orin); polyvalent metal 0.030 wt. %): 14.5; Sugar content (apple tree (Orin); polyvalent metal 0.075 wt. %): 14.9; Acidity (apple tree (Orin); polyvalent metal 0.030 wt. %): 0.38; Acidity (apple tree (Orin); polyvalent metal 0.075 wt. %): 0.30
